Laboratory results as given in patent US9670157B2, “Benzylamine derivatives” (KALVISTA PHARMACEUTICALS LIMITED, priority 2013, dated 2017).

Legend:
plasmin = plasmin (Homo sapiens (Human), UniProt P00747); experiment: Determination of Enzyme Selectivity: plasmin; type: biochemical; settings: substrate at Km concentration
Description: (§1) Human serine protease enzymes plasmin, thrombin, trypsin, Factor Xa and Factor XIIa were assayed for enzymatic activity using an appropriate fluorogenic substrate. Protease activity was measured by monitoring the accumulation of liberated fluorescence from the substrate over 5 minutes. The linear rate of fluorescence increase per minute was expressed as percentage (%) activity. The Km for the cleavage of each substrate was determined by standard transformation of the Michaelis-Menten equation.

trypsin = experiment: Determination of Enzyme Selectivity: trypsin; type: biochemical, Human; settings: substrate at Km concentration
Description: as §1

thrombin = thrombin (Homo sapiens (Human), UniProt P00734); experiment: Determination of Enzyme Selectivity: thrombin; type: biochemical; settings: substrate at Km concentration
Description: as §1

[1] = Pharmacokinetics following a single oral dose in rats; type: in vivo; settings: rat, nominal 10 mg/kg, male Sprague-Dawley rats, plasma
Description: Pharmacokinetic studies of selected examples were performed to assess the pharmacokinetics following a single oral dose in male Sprague-Dawley rats. Typically, either two or three rats were given a single po dose of 5 mL/kg of a nominal 2 mg/mL (10 mg/kg) composition of test compound in either 5% cremophor:5% ethanol:90% phosphate buffered saline or 20% Labrasol:80% water. Following dosing, blood samples were collected over a period of 8 hours. Typical sample times include 5, 15 and 30 minutes then 1, 2, 4, 6 and 8 hours. Following collection, blood samples were centrifuged and the plasma fraction analysed for concentration of test compound by LCMS.

Human plasma kallikrein = Human plasma kallikrein (Homo sapiens (Human), UniProt P03952); experiment: Determination of the IC50 for Plasma Kallikrein; type: biochemical; settings: 37° C., fluorogenic substrate H-DPro-Phe-Arg-AFC; read-out: IC50 (human PKal)
Description: Human plasma kallikrein (Protogen) was incubated at 37° C. with the fluorogenic substrate H-DPro-Phe-Arg-AFC and various concentrations of the test compound. Residual enzyme activity (initial rate of reaction) was determined by measuring the change in optical absorbance at 410 nm and the IC50 value for the test compound was determined.

Human KLK1 = Human KLK1 (Homo sapiens (Human), UniProt P06870); experiment: Determination of the IC50 for KLK1; type: biochemical; settings: 37° C., fluorogenic substrate H-DVal-Leu-Arg-AFC
How it was run: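 KLK1 inhibition was measured in vitro following standard published methods. Human KLK1 (Callbiochem) was incubated at 37° C. with the fluorogenic substrate H-DVal-Leu-Arg-AFC in the presence of a range of test compound concentrations. Residual enzyme activity, taken as the initial reaction rate, was followed by the change in optical absorbance at 410 nm, and IC50 values were derived.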

Factor XIIa = Factor XIIa (Homo sapiens (Human), UniProt P00748); experiment: Determination of Enzyme Selectivity: Factor XIIa; type: biochemical; settings: substrate at Km concentration
Description: as §1

plasmin, sequence (P00747 581-810): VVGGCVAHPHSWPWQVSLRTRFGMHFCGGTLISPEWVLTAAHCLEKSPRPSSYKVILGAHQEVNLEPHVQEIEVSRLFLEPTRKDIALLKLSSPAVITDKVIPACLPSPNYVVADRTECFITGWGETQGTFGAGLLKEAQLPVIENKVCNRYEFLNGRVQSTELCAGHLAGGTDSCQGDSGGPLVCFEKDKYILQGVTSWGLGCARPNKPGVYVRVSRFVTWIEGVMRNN
plasmin, sequence (P00747 97-580 partner): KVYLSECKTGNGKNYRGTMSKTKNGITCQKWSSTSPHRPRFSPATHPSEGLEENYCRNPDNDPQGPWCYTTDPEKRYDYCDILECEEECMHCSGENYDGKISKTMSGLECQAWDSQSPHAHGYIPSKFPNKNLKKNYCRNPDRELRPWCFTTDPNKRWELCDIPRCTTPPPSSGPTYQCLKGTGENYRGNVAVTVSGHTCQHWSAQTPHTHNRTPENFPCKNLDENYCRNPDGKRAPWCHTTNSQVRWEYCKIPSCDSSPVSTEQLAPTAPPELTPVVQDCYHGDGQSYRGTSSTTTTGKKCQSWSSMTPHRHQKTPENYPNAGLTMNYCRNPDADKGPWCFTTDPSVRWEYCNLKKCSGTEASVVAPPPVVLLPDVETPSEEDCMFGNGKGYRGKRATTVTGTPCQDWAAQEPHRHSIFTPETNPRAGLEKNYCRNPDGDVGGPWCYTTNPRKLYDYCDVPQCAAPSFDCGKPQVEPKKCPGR
Human plasma kallikrein, sequence (P03952 391-638): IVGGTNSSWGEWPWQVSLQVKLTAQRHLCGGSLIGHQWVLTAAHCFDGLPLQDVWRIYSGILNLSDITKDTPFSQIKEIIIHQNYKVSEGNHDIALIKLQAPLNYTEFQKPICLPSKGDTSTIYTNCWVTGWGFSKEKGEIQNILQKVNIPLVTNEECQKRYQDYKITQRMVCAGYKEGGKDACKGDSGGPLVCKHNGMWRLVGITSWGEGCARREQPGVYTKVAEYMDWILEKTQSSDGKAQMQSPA
Human plasma kallikrein, sequence (P03952 20-390 partner): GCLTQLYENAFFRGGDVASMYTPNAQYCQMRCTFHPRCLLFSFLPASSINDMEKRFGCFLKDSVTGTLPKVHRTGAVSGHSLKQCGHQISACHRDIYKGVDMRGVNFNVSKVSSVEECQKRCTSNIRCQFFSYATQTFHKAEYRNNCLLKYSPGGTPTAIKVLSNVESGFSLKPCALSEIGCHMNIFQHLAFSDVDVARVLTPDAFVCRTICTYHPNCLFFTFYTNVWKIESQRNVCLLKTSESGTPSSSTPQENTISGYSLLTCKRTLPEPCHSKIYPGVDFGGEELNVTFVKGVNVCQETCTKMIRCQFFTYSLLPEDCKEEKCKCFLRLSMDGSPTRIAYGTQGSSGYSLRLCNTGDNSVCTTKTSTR
Factor XIIa, sequence (P00748 373-615): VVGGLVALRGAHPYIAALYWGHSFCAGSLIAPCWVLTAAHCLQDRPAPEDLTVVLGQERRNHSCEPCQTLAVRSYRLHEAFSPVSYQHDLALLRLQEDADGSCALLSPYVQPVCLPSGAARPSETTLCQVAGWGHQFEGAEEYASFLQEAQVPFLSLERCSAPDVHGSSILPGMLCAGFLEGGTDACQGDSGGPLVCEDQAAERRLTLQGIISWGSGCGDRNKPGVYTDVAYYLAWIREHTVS
Human KLK1, sequence (P06870 25-262): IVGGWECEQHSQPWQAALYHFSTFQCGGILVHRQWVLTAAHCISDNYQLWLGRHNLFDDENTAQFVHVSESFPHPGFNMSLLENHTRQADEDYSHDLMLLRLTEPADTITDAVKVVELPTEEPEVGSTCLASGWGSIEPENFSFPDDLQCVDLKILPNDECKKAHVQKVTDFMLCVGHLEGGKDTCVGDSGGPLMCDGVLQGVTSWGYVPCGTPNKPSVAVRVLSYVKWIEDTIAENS

IC50 (plasmin)	IC50 (trypsin)	IC50 (thrombin)	Cmax [1]	Tmax [1]	IC50 (Human plasma kallikrein)	IC50 (Human KLK1)	IC50 (Factor XIIa)	SMILES
> 40 µM	> 40 µM	> 40 µM	81 ng/mL	4.67 h	0.063 µM	> 10 µM	> 10 µM	Cc1cc(C(=O)NCc2ccc(CN)cc2)c(C)n1Cc1csc(-c2ccccc2)n1 [Example 1, 2,5-Dimethyl-1-(2-phenyl-thiazol-4-ylmethyl)-1H-pyrrole-3-carboxylic acid 4-aminomethyl-benzylamide]
24.8 µM	> 40 µM	> 40 µM	59 ng/mL	5 h	0.015 µM	> 10 µM	> 10 µM	Cc1cc(CN)ccc1CNC(=O)c1cc(C)n(Cc2csc(-c3ccccc3)n2)c1C [Example 2, 2,5-Dimethyl-1-(2-phenyl-thiazol-4-ylmethyl)-1H-pyrrole-3-carboxylic acid 4-aminomethyl-2-methyl-benzylamide]
> 40 µM	> 40 µM	> 40 µM			8.38 µM	> 10 µM	> 10 µM	NCc1ccc(CNC(=O)c2cn(Cc3ccccc3)nc2-c2ccccc2)cc1 [Example 84, 1-Benzyl-3-phenyl-1H-pyrazole-4-carboxylic acid 4-aminomethyl-benzylamide]
